Experiments:
[1] = target: PDGF-R (Homo sapiens, UniProt P09619); assay: PDGF-R ELISA; type: cell-based
Description: A PDGF-R ELISA is described in International Patent Publication No. WO 96/40116, published December 19, 1996 by Tang et al.

[2] = target: T1, EGFR (Homo sapiens, UniProt P00533); assay: EGFR ELISA assay (in vitro kinase activity, EGFR captured from A431 cell lysate); type: biochemical; parameters: concentration or dose not given beside the values
T1 construct: Add 7 ug A431 cell lysate per well (EGFR source); endogenous in cells; host or cells: A431
T1 sequence (P00533 25-1210): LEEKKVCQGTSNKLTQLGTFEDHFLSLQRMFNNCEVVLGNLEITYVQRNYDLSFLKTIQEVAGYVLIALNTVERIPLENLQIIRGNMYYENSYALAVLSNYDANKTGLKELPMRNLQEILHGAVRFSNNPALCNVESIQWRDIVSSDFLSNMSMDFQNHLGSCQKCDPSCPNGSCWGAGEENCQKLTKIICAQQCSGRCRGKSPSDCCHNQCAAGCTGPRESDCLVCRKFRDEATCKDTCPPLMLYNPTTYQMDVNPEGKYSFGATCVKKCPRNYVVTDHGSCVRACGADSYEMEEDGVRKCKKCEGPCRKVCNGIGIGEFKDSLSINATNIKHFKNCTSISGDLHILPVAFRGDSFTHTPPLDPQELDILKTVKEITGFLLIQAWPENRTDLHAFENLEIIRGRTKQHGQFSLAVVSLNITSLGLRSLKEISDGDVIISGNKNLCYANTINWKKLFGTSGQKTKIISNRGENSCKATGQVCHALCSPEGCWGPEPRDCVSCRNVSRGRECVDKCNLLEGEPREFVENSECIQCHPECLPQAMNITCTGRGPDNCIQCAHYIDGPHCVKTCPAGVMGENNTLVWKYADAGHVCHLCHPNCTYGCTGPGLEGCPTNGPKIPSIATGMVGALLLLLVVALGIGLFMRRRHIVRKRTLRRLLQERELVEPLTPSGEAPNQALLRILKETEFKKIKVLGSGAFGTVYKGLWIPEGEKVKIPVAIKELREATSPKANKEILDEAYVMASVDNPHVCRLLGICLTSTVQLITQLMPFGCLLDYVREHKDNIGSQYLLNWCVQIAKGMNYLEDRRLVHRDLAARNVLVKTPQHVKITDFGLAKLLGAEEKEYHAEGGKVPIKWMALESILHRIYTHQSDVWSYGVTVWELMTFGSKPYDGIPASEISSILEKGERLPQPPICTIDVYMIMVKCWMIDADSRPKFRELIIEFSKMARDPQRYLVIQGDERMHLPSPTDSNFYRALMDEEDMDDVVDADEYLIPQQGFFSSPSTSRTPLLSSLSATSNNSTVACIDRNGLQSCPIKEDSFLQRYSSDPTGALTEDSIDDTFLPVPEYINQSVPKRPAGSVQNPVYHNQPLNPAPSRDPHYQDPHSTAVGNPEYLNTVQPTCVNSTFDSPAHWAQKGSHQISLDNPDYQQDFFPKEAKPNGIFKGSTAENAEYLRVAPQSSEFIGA
Description: To provide a consistent method for measuring the in vitro kinase activity of the EGFR in an Enzyme-linked immunosorbent assay (Elisa).
Scope. The following protocol describes the procedures used to analyze protein tyrosine kinase activity on the EGFR in an Elisa. The procedure also describes the protocol for the initial screening of drugs for inhibition or activation of protein tyrosine kinase activity.
Reagents and Supplies. • 1. […] 05-101 monoclonal anti-EGFR antibody (commercially available from UB1) -80° C, 1 ml aliquots • 3. […] TBST Buffer Formulation: 50 mM Tris pH 7.2 150 mM NaCl 0.1% Triton X-100 • 5. Blocking Buffer Formulation: 5% Carnation Instant Milk in PBS • 6. A431 cell lysate A431 cells are available from a variety of commercial sources and may be used lysed using conventional methods known to those skilled in the art or as described for lysis of the 3T3 cells in the EGF cellular assay described herein. -80° C, 1 ml aliquots • 7. TBS Buffer Formulation: 50 mM Tris pH 7.2 150 mM NaCl • 8. […] NUNC 96-well V bottom polypropylene plates Applied Scientific Catalog # AS-72092 • 11. EDTA Formulation: 200 mM EDTA pH 8.0 • 12. […] Goat anti-rabbit IgG peroxidase conjugate Biosource Catalog # ALI0404 • 14. ABTS Solution Formulation: 100 mM Citric Acid (anhydrous) 250 mM Na2HPO4 pH 4.0 0.5 mg/ml ABTS (2,2'-azino-bis(3-ethylbenzthiazoline-6-sulfonic acid) (Sigma Catalog # A-1888) Keep solution in dark at 4 C until ready to use • 15. Hydrogen peroxide 30% solution Fisher Catalog # H325 Store in the dark at 4 C until ready to use • 16. ABTS/H2O2 Formulation: 15 mls ABTS solution 2 ul H2O2 Prepare 5 minutes before use and room temperature • 17. 0.2 M HCL stock in H2O Procedure. • 1. Coat Corning 96-well elisa plates with 0.5 ug per well 05-101 antibody. Bring final volume to 100 ul per well with PBS. Coat plates overnight at 4° C. • 2. Remove unbound 05-101 from wells by inverting plate to remove liquid. Wash 1x with distilled H2O by filling wells Pat the plate on a paper towel to remove excess liquid. • 3. Block plates with 5% milk in PBS. 150 ul per well. Incubate plate 30 minutes while shaking on a microtiter plate shaker. • 4. Wash plate 3x with dionized water, then once with TBST • 5. Add 7 ug A431 cell lysate per well (EGFR source). Add PBS to final volume of 100 ul per well Incubate 30 minutes while shaking. • 6. Wash as described in step 4. • 7. At this point, drugs or extracts are added to the wells. Dilute drugs/extracts 1:100 (unless specified otherwise) in TBS + 10% DMSO in 96-well polypropylene plates. Add 120 ul TBS to ELISA plate containing captured EGFR. Add 13.5 ul diluted drugs/extracts to ELISA plate. […] Incubate plate 30 minutes while shaking. • 8. […] (150 ul final volume in well with 3 uM ATP/5 mM MnCl2 final concentration in well.) Incubate 5 minutes while shaking vigorously. *NOTE: It is critical that ATP/MnCl2 phosphorylates the receptor for 5 minutes only. It is best to add the ATP/MnCl2 with an 12 channel pipettor 1 row at a time leaving 20 seconds between each row so that the reaction may be stopped with EDTA exactly 5 minutes later (this depends on the number of plates being phosphorylated in one batch). Shake between each addition. • 9. After 5 minutes, to stop reaction, add 16.5 ul of 200 mM EDTA pH 8.0 for 20 mM final in well, shaking continuously between each addition. This is done using the same timing method as above. After last row has received EDTA, shake plate an additional minute. • 10. Wash 4x with deionized water, twice with TBST. • 11. Add rabbit polyclonal anti-phosphotyrosine serum. Dilute 1:3000 in TBST. Add 100 ul per well. Incubate 30-45 minutes while shaking. • 12. Wash as described above in step 4. • 13. Add BioSource anti-rabbit peroxidase conjugate antibody. Dilute 1:2000 in TBST. Add 100 ul per well. Incubate 30 minutes while shaking. • 14. Wash as described in step 4. • 15. Add 100 ul of ABTS/H2O2 solution to well. Incubate 5 to 10 minutes while shaking. Remove bubbles • 16. […]

Sequence of PDGF-R (P09619 33-1106, species assumed): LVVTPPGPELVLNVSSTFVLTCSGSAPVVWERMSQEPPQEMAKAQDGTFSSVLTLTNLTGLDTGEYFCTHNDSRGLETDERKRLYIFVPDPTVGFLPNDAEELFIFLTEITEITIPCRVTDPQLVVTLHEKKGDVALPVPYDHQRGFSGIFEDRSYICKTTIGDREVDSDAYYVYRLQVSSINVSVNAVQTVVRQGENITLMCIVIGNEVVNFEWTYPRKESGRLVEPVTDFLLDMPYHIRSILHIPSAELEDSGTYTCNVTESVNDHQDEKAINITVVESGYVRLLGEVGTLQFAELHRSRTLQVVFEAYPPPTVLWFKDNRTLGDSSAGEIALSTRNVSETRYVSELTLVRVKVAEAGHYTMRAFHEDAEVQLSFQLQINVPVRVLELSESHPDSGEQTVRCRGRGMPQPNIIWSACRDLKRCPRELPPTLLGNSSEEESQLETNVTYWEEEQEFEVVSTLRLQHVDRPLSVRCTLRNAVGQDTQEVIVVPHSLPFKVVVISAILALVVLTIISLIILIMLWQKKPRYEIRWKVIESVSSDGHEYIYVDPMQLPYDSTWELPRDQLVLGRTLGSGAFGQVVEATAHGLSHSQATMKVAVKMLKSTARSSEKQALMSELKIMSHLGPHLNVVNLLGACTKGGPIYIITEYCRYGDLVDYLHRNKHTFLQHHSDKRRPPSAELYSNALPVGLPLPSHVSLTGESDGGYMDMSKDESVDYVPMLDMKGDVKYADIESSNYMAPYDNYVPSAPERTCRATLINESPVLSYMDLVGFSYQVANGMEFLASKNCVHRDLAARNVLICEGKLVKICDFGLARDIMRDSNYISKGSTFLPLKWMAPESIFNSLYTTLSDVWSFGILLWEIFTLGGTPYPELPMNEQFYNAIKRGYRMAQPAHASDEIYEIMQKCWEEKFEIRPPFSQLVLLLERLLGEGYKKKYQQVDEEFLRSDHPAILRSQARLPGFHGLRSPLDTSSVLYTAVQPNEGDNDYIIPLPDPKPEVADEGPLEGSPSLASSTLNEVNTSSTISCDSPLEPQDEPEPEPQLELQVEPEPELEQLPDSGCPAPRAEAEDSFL

Compound | PDGF Kinase %Inhibition [1] | Biochem EGFR %Inhibition [2]
CCn1c2ccccc2c2cc(C=C3C(=O)Nc4ccc(S(=O)(=O)N5CCOCC5)cc43)ccc21 [10731/F02] | 14.1% | 17.7%
CNS(=O)(=O)c1ccc2c(c1)C(=CC(c1cccs1)C(F)(F)F)C(=O)N2 (stereo not drawn) [10732/D02] | -24.0% | 8.7%
CNS(=O)(=O)c1ccc2c(c1)C(=Cc1cc(Br)c(OCc3ccccc3)c(C(C)(C)C)c1)C(=O)N2 [10732/D08] | 30.5% | -20.6%
CNS(=O)(=O)c1ccc2c(c1)C(=Cc1coc3ccc([N+](=O)[O-])cc3c1=O)C(=O)N2 [10731/D07] | 2.7% | 25.9%
Cc1c(Br)ccc2c1C(=CC(c1cccs1)C(F)(F)F)C(=O)N2 (stereo not drawn) [10732/C02] | 7.3% | -6.5%
CN1C(=O)C(=C2C(=O)Nc3ccc(CCCl)cc32)c2ccccc21 [10731/G10] | 5.6% | 5.5%
CCn1c2ccccc2c2cc(C=C3C(=O)Nc4ccc(S(=O)(=O)Nc5ccc(C(F)(F)F)cc5)cc43)ccc21 [10731/E02] | 13.7% | 7.9%
O=C1Nc2ccc(S(=O)(=O)Nc3ccc(C(F)(F)F)cc3)cc2C1=Cc1coc2ccc([N+](=O)[O-])cc2c1=O [10731/E07] | 3.7% | 38.4%
Cc1cc2occ(C=C3C(=O)Nc4ccc(CCCl)cc43)c(=O)c2cc1C [10731/G03] | 6.5% | 7.7%
CNS(=O)(=O)c1ccc2c(c1)C(=Cc1coc3ccc(C(C)C)cc3c1=O)C(=O)N2 [10731/D05] | 46.0% | 53.9%
O=C1Nc2ccc(S(=O)(=O)N3CCOCC3)cc2C1=Cc1coc2ccc([N+](=O)[O-])cc2c1=O [10731/F07] | 1.3% | 37.7%
COc1ccc(C=C2C(=O)Nc3c(Br)cc(Br)cc32)cc1C(C)(C)C [10732/A05] | -12.9% | 4.6%
O=C1Nc2ccc(S(=O)(=O)N3CCOCC3)cc2C1=Cc1c[nH]c(=O)[nH]c1=O [10731/F08] | 4.1% | 7.1%
COc1c(C(C)C)cc(C=C2C(=O)Nc3ccc(Br)c(C)c32)cc1C(C)C [10732/C03] | 7.3% | 1.4%
COc1ccc(C=C2C(=O)Nc3ccc(Br)c(C)c32)cc1C(C)(C)C [10732/C05] | -17.0% | -22.8%
COc1c(I)cc(C=C2C(=O)Nc3ccc(I)cc32)cc1C(C)(C)C [10732/B11] | 70.9% | 9.3%
CC(C)c1ccc2occ(C=C3C(=O)Nc4ccc(S(=O)(=O)N5CCOCC5)cc43)c(=O)c2c1 [10731/F05] | 20.3% | 19.5%
CNS(=O)(=O)c1ccc2c(c1)C(=Cc1cc(Cl)c(OC)c(C(C)(C)C)c1)C(=O)N2 [10732/D09] | 15.9% | -9.9%
CC(C)c1cc(C=C2C(=O)Nc3ccc(I)cc32)cc(C(C)C)c1Oc1ccccc1 [10732/B04] | 16.9% | -22.1%
O=C1Nc2c(Br)cc(Br)cc2C1=CC(c1cccs1)C(F)(F)F (stereo not drawn) [10732/A02] | 10.8% | 5.1%

Compound | PDGF Kinase %Inhibition [1] | Biochem EGFR %Inhibition [2]
CN1C(=O)C(=C2C(=O)Nc3ccc(S(=O)(=O)N4CCOCC4)cc32)c2ccccc21 [10731/F10] | 28.4% | 7.9%
COc1c(Cl)cc(C=C2C(=O)Nc3ccc(Br)c(C)c32)cc1C(C)(C)C [10732/C09] | 15.4% | -3.9%
CNS(=O)(=O)c1ccc2c(c1)C(=Cc1coc3ccc(C)cc3c1=O)C(=O)N2 [10731/D06] | 8.0% | 23.2%
CN1C(=O)C(=C2C(=O)Nc3ccc(S(=O)(=O)Nc4ccc(C(F)(F)F)cc4)cc32)c2ccccc21 [10731/E10] | 21.7% | 25.1%
O=C1Nc2ccc(CCCl)cc2C1=Cc1coc2ccc([N+](=O)[O-])cc2c1=O [10731/G07] | 40.8% | 0.7%
CC(C)(C)c1cc(C=C2C(=O)Nc3ccc(I)cc32)cc(Cl)c1OCc1ccccc1 [10732/B10] | 0.7% | 0.6%
COc1c(I)cc(C=C2C(=O)Nc3c(Br)cc(Br)cc32)cc1C(C)(C)C [10732/A11] | 40.1% | 1.8%
CCn1c2ccccc2c2cc(C=C3C(=O)Nc4ccc(CCCl)cc43)ccc21 [10731/G02] | -10.1% | 4.7%
O=C1Nc2ccc(I)cc2C1=CC(c1cccs1)C(F)(F)F (stereo not drawn) [10732/B02] | 23.5% | -26.0%
Cc1c(Br)ccc2c1C(=Cc1cc(C(C)C)c(Oc3ccccc3)c(C(C)C)c1)C(=O)N2 [10732/C04] | 3.8% | -14.7%
CNS(=O)(=O)c1ccc2c(c1)C(=Cc1cc(Br)c(OC)c(C(C)(C)C)c1)C(=O)N2 [10732/D07] | -3.8% | -19.1%
CNS(=O)(=O)c1ccc2c(c1)C(=Cc1c[nH]c(=O)[nH]c1=O)C(=O)N2 [10731/D08] | -8.7% | 16.8%
COc1ccc2[nH]cc(C=C3C(=O)Nc4ccc(S(=O)(=O)N5CCOCC5)cc43)c2c1 [10731/F09] | 15.6% | -0.7%
CNS(=O)(=O)c1ccc2c(c1)C(=Cc1ccc(OCc3ccccc3)c(C(C)(C)C)c1)C(=O)N2 [10732/D06] | 16.4% | 3.6%
O=C1Nc2ccc(S(=O)(=O)Nc3ccc(C(F)(F)F)cc3)cc2C1=Cc1c[nH]c(=O)[nH]c1=O [10731/E08] | 8.9% | 40.1%
Cc1cc2occ(C=C3C(=O)Nc4ccc(S(=O)(=O)Nc5ccc(C(F)(F)F)cc5)cc43)c(=O)c2cc1C [10731/E03] | 15.6% | 10.4%
CC(C)(C)c1cc(C=C2C(=O)Nc3c(Br)cc(Br)cc32)cc(Cl)c1OCc1ccccc1 [10732/A10] | 7.3% | 6.1%
O=C1Nc2ccc(CCCl)cc2C1=Cc1c[nH]c(=O)[nH]c1=O [10731/G08] | -13.9% | 13.3%
CNS(=O)(=O)c1ccc2c(c1)C(=Cc1ccc(OC)c(C(C)(C)C)c1)C(=O)N2 [10732/D05] | 4.3% | -36.7%
